What all share (assay): NCI tumour cell line growth inhibition, 48 h
For test [1], the system named is SK-MEL-28 melanoma.
Test [2] relates to NCI-H23 lung.
Test [3] concerns COLO 205 colon.
Test [4] deals with UO-31 renal.
Test [5] has as its system U251 CNS.
The subject of test [6] is SW-620 colon.
Test [7] concerns MOLT-4 leukemia.
In test [8] the test system is HOP-62 NSCLC.
Test [9] has as its system OVCAR-4 ovarian.
Test [10] concerns SR leukemia.
For test [11], the system named is A549 NSCLC.
Test [12] concerns HS 578T breast.

Results on twelve molecules are retold here after PubChem BioAssay (NCI).

“And” between values parts separate entries of the source, which are not always exact repeats. Equal entries are not always repeated.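 Values below derive from 48-hour exposures of cells grown in 96-well plates, with endpoints linearly interpolated between the two concentrations bracketing the appropriate inhibition level. GI50: concentration for 50% inhibition of growth. Definition used: TGI = concentration required for complete inhibition of growth.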

On to `CC(C)(O)C(O)COc1c2c(cc3oc(=O)ccc13)OCO2` (stereo unspecified), for which the TGI in test [1], in [2], in test [3], in test [4], in test [5] and in [6] was greater than 100 µM in each case. The TGI in [7], in test [8], in test [9], in test [10] and in test [11] was greater than 100 µM each time.

As to `O=c1c2cc(-c3ccccc3)cnc2sn1-c1ccc(Br)cc1`, the TGI in test [1], in [2], in [3], in test [4], in [5] and in test [6] was greater than 100 µM each time. The TGI in test [7], in test [8], in test [9], in test [10] and in test [11] was greater than 100 µM throughout.

As to `CSc1nc(-c2ccc(Cl)cc2)c(C#N)c(=O)n1C1OC(COC(C)=O)C(OC(C)=O)C(OC(C)=O)C1OC(C)=O` (stereo unspecified), the GI50 in test [1] was 27.6 µM and > 100 µM; in test [2] it was 22.2 µM and > 100 µM; in test [4], 10.4 µM and > 100 µM; in [5] it was 20.6 µM and > 100 µM; in [8], 23.6 µM and > 100 µM; in [9] it was greater than 100 µM. The TGI was greater than 100 µM in test [1]; greater than 100 µM in test [2]; greater than 100 µM in [3]; 23.5 µM and > 100 µM in test [4]; 71.6 µM and > 100 µM in [5]; greater than 100 µM in test [6]. In addition, the TGI was greater than 100 µM in test [7]; 57.1 µM and > 100 µM in test [8]; greater than 100 µM in [9]; greater than 100 µM in test [10]; greater than 100 µM in test [11].

As for `COc1ccccc1Nc1nc2c([nH]1)c(=O)n(C)c(=O)n2C`, the TGI in test [1], in test [2], in test [3], in test [6], in test [7] and in test [8] was greater than 10 µM throughout. Moreover, the TGI in [9], in [10] and in test [11] was greater than 10 µM each time.

As for `CC(C)CC(NC(=O)C(C)(CI)Cc1ccccc1)C(=O)Nc1ccccc1` (stereo unspecified), the TGI in test [2], in test [3], in test [4], in test [5], in test [6] and in test [7] was greater than 100 µM throughout. Also, the TGI in [9], in test [10] and in test [11] was greater than 100 µM each time.

Turning to `CCOC(=O)C(C(=O)OCC)=C1SC(=Nc2ccccc2)C(=Nc2ccccc2)N1c1ccccc1`, the TGI in test [1], in [2], in test [12], in test [3], in test [4] and in [5] was greater than 100 µM each time. Moreover, the TGI in test [7], in [8], in test [10] and in test [11] was greater than 100 µM throughout.

Regarding `NC1N=C(c2ccc(Cl)cc2)C2=C(N1)c1ccccc1CC2` (stereo unspecified), the TGI in test [1] is greater than 100 µM; in [2], greater than 100 µM; in test [12], greater than 100 µM; in test [3] it was greater than 100 µM; in test [4] it was greater than 88.7 µM; in test [5], greater than 100 µM. The TGI in [6] is greater than 78.4 µM; in [7], greater than 31.4 µM; in test [8] it was greater than 82.7 µM; in test [9] it was 88.2 µM; in test [11], greater than 80.7 µM.

For `O=C(Nc1ccc(C(F)(F)F)cc1)NC(F)(F)F`, the TGI in [1], in test [2], in test [12], in [3], in test [4] and in test [5] was greater than 100 µM in each case. Moreover, the TGI in test [6], in [7], in [10] and in test [11] was greater than 100 µM in each case.

As to `CSC12c3cc(C)n(-c4ccc([N+](=O)[O-])cc4)c3CC(C)(C)CN1C(=O)C2Oc1ccccc1` (stereo unspecified), the TGI in [1], in [2], in [3], in test [4], in [5] and in test [6] was greater than 100 µM in each case. Further, the TGI in test [7], in test [8], in test [9], in test [10] and in test [11] was greater than 100 µM each time.

On to `COc1cccc2c1c1ccc3c(c1n2C)C(=O)C=CC3=O`, for which the TGI is 33.4 µM in [1]; 32.2 µM in [2]; 19.6 µM in [3]; 44.2 µM in test [4]; greater than 100 µM in test [5]; 24.7 µM in test [6]. Moreover, the TGI in [7] was 8.65 µM; in test [8] it was greater than 100 µM; in [9] it was 31.8 µM; in test [10], 6.65 µM; in test [11], greater than 100 µM.

As to `CCOCCOCCOCc1nc(C#N)c(N)o1`, the TGI in [1], in test [2], in [3], in test [4], in test [5] and in [6] was greater than 100 µM throughout. In addition, the TGI in [7], in test [8], in test [9], in [10] and in test [11] was greater than 100 µM each time.

`CSc1ncnc2c1ncn2CCC(=O)O`: the TGI in [1], in test [2], in test [3], in test [4], in test [6] and in [7] was greater than 100 µM throughout. The TGI in [8], in test [9], in [10] and in test [11] was greater than 100 µM throughout.
